{"source": "patent US4946668A", "about": "“Tumor imaging with technetium labelled glucarate” (Centocor, Inc., priority 1988, dated 1990)", "tested_on": "colorectal carcinoma (HT-29 cells)", "assay": "Detection of colorectal carcinoma (HT-29 xenograft): scintigraphic imaging and uptake of radioactivity", "format": "in vivo, female athymic nude mice", "description": "Colorectal carcinoma was produced in female athymic nude mice by injecting subcutaneously 1×10^7 HT-29 cells (M.D. Anderson Hospital and Tumor Institute Houston, Tex.) per mouse in the hind limb. After 4 weeks, tumor bearing mice (2 per group) were injected intravenously with either sodium per-technetate (TcO4^-) or Tc-99m-glucarate (approximately350 uCi/mouse). […] After imaging at the last time point, animals were killed, tumors and organs were weighed and quantitated for the distribution of radioactivity.", "key": {"[1]": {"details": "22 hours, approximately 350 uCi/mouse i.v."}}, "data": [{"smiles": "[Na+].[O]=[Tc](=[O])(=[O])[O-]", "note": "[TcO4^-, sodium pertechnetate]", "values": [{"measurement": "% ID/gm at tumor site", "setting": "[1]", "value": "0.29 ± 0.00", "unit": "% ID/gm"}, {"measurement": "tumor/blood", "setting": "[1]", "value": "2.08 ± 0.21"}, {"measurement": "tumor/muscle", "setting": "[1]", "value": "12.08 ± 3.41"}, {"measurement": "tumor visualization", "setting": "images at 3, 5 and 24 hours", "value": "no tumor visualization was detected"}, {"measurement": "uptake of radioactivity seen in scintigraphic images", "setting": "images at 3, 5 and 24 hours after injection", "value": "nonspecific uptake of radioactivity at the thyroid and stomach"}]}]}
